Bounds are passed on as bounds.

In one test the target is T1, HCV NS3/4A protease complex, BMS strain (genotype 1a) (UniProt P27958, C1454S/C1711G, species not given/STRAIN_BMS).
T1 construct: b1001: DNA encoding the recombinant HCV NS3/4A protease complex (amino acids 1027 to 1711) ... a three-lysine solubilizing tail was added at the 3′-end of the NS4A coding region; fused on or other part: Three-lysine solubilising tail at the C-terminus of NS4A; A His tag is implied by the pET21b vector and Ni-NTA purification
Briefly: Recombinant HCV NS3/4A protease complex FRET peptide assay, BMS strain. As to conditions: NS3/4A BMS Strain; activity range classes. It is filed as biochemical. A digest of the protocol:
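Recombinant NS3/4A (aa 1027–1711) from H77C, J4L6S or BMS strains, with C1454S and C1711G mutations and three-lysine tail, expressed in E. coli and Ni-NTA/gel-filtration purified to >90%. Inhibition of cleavage of a FRET peptide substrate measured.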
Consider `COc1ccc2c(O[C@@H]3C[C@H]4C(=O)N[C@]5(C(=O)O)C[C@H]5/C=C\CCCO[C@H](C)[C@H](NC(=O)OC(C)(C)C)C(=O)N4C3)nccc2c1` [Compound 61], for which the IC50 was in the range of 500 to 5000 nM.

`COc1ccc2c(O[C@@H]3C[C@H]4C(=O)N[C@]5(C(=O)O)C[C@H]5/C=C\CCCSC(C)(C)[C@H](NC(=O)OC(C)(C)C)C(=O)N4C3)nccc2c1` [Compound 79, (1S,4R,6S,14R,18R)-7-cis-14-tert-Butoxycarbonylamino-13,13-dimethyl-18-(6-methoxy-isoquinolin-1-yloxy)-2,15-dioxo-12-thia-3,16-diazatricyclo[14.3.0.0^4,6]nonadec-7-ene-4-carboxylic acid]: the IC50 is 5000 to 50000 nM.

As to `COc1ccc2c(O[C@@H]3C[C@H]4C(=O)N[C@]5(C(=O)O)C[C@H]5/C=C\CCCOC[C@H](NC(=O)OC(C)(C)C)C(=O)N4C3)nccc2c1` [Compound 84, (1S,4R,6S,14S,18R)-7-cis-14-tert-Butoxycarbonylamino-18-(6-methoxyisoquinolin-1-yloxy)-2,15-dioxo-12-oxa-3,16-diazatricyclo[14.3.0.0^4,6]-nonadec-7-ene-4-carboxylic acid], the IC50 was 50 to 500 nM.

Turning to `COc1ccc2c(OC3CC4C(=O)NC5(C(=O)O)CC5C=CCCCCC(NC(=O)OC(C)(C)C)C(=O)N4C3)nccc2c1` (stereo not shown) [Compound 143], the IC50 was in the range of 50 to 500 nM.

With `CC(C)(C)OC(=O)N[C@H]1CN(S(=O)(=O)c2ccccc2[N+](=O)[O-])CCC/C=C\[C@@H]2C[C@@]2(C(=O)O)NC(=O)[C@@H]2C[C@@H](Oc3nccc4ccccc34)CN2C1=O` [Compound 144], the IC50 lay within 500 to 5000 nM.

Still in this test, the particulars now being: NS3/4A BMS strain; activity range symbols.
Take `COc1ccc2c(OC3CC4C(=O)NC5(C(=O)NS(=O)(=O)C6CC6)CC5C=CCOCCCC(NC(=O)OC(C)(C)C(F)(F)F)C(=O)N4C3)nccc2c1` (stereo not shown) [Compound 39]: the IC50 is less than 50 nM.

With `COc1ccc2c(OC3CC4C(=O)NC5(C(=O)NS(=O)(=O)C6(C)CC6)CC5C=CCCCSCC(NC(=O)OC(C)C)C(=O)N4C3)nccc2c1` (stereo not shown) [Compound 41], the IC50 is less than 50 nM.

Regarding `COc1ccc2c(OC3CC4C(=O)NC5(C(=O)NS(=O)(=O)C6(C)CC6)CC5C=CCCCSCC(NC(=O)OCC(C)(C)C)C(=O)N4C3)nccc2c1` (stereo not shown) [Compound 42], the IC50 was less than 50 nM.

On to `COc1ccc2c(OC3CC4C(=O)NC5(C(=O)NS(=O)(=O)C6(C)CC6)CC5C=CCCCSCC(NC(=O)NC5CCCC5)C(=O)N4C3)nccc2c1` (stereo not shown) [Compound 43], for which the IC50 was less than 50 nM.

`CCC1(S(=O)(=O)NC(=O)C23CC2C=CCCCSCC(NC(=O)OC(C)C)C(=O)N2CC(Oc4nccc5cc(OC)ccc45)CC2C(=O)N3)CC1` (stereo not shown) [Compound 44]: the concentration for half-maximal inhibition (IC50) is less than 50 nM.

In the case of `CCC1(S(=O)(=O)NC(=O)C23CC2C=CCCCSCC(NC(=O)OCC(C)(C)C)C(=O)N2CC(Oc4nccc5cc(OC)ccc45)CC2C(=O)N3)CC1` (stereo not shown) [Compound 45], the IC50 is less than 50 nM.

Take `CCC1(S(=O)(=O)NC(=O)C23CC2C=CCCCSCC(NC(=O)NC2CCCC2)C(=O)N2CC(Oc4nccc5cc(OC)ccc45)CC2C(=O)N3)CC1` (stereo not shown) [Compound 46]: the concentration for half-maximal inhibition (IC50) is less than 50 nM.

Turning to `CCC1(S(=O)(=O)NC(=O)C23CC2C=CCCC[S+]([O-])CC(NC(=O)OC(C)(C)C)C(=O)N2CC(Oc4nccc5cc(OC)ccc45)CC2C(=O)N3)CC1` (stereo not shown) [Compound 47], the IC50 is less than 50 nM.

For the compound `CCC1(S(=O)(=O)NC(=O)C23CC2C=CCCCS(=O)(=O)CC(NC(=O)OC(C)(C)C)C(=O)N2CC(Oc4nccc5cc(OC)ccc45)CC2C(=O)N3)CC1` (stereo not shown) [Compound 48], the IC50 was less than 50 nM.

Regarding `COc1ccc2c(OC3CC4C(=O)NC5(C(=O)NS(=O)(=O)C6(C)CC6)CC5C=CCCCS(=O)(=O)CC(NC(=O)OC(C)(C)C)C(=O)N4C3)nccc2c1` (stereo not shown) [Compound 49], the IC50 fell in the range of 50 to 500 nM.

Turning to `CC1(OC(=O)NC2CCCCCC=CC3CC3(C(=O)NS(=O)(=O)C3CC3)NC(=O)C3CC(Oc4nccc5ccccc45)CN3C2=O)CCCC1` (stereo not shown) [Compound 50], the IC50 was less than 50 nM.

Consider `CC(C)(OC(=O)NC1CCCCCC=CC2CC2(C(=O)NS(=O)(=O)C2CC2)NC(=O)C2CC(Oc3nccc4ccccc34)CN2C1=O)C(F)(F)F` (stereo not shown) [Compound 51], for which the IC50 was less than 50 nM.

Regarding `CC(C)(CCl)OC(=O)NC1CCCCCC=CC2CC2(C(=O)NS(=O)(=O)C2CC2)NC(=O)C2CC(Oc3nccc4ccccc34)CN2C1=O` (stereo not shown) [Compound 52], the IC50 was less than 50 nM.

Regarding `COc1ccc2c(OC3CC4C(=O)NC5(C(=O)NS(=O)(=O)C6(C)CC6)CC5C=CCCCCCC(NC(=O)OC(C)(C)C)C(=O)N4C3)nccc2c1` (stereo not shown) [Compound 53], the IC50 is less than 50 nM.

For `CCC1(S(=O)(=O)NC(=O)C23CC2C=CCCCCCC(NC(=O)OC(C)(C)C)C(=O)N2CC(Oc4nccc5cc(OC)ccc45)CC2C(=O)N3)CC1` (stereo not shown) [Compound 54], the concentration for half-maximal inhibition (IC50) is less than 50 nM.

Regarding `CC1(OC(=O)N[C@H]2CCCCC/C=C\[C@@H]3C[C@@]3(C(=O)NS(=O)(=O)C3CC3)NC(=O)[C@@H]3C[C@@H](Oc4nccc5ccccc45)CN3C2=O)CCC1` [Compound 56, [(Z)-(1S,4R,14S,18R)-4-cyclopropanesulfonylaminocarbonyl-18-(isoquinolin-1-yloxy)-2,15-dioxo-3,16-diaza-tricyclo[14.3.0.0^4,6]nonadec-7-en-14-yl]-carbamic acid 1-methyl-cyclobutyl ester], the IC50 was less than 50 nM.

For `CC(C)(C)OC(=O)NC1CCCCCC=CC2CC2(C(=O)NS(=O)(=O)C2CC2)NC(=O)C2CC(Oc3nc(Cl)cc4ccccc34)CN2C1=O` (stereo not shown) [Compound 57], the IC50 is less than 50 nM.

On to `CC(C)(C)OC(=O)N[C@H]1CCCCC/C=C\[C@@H]2C[C@@]2(C(=O)NS(=O)(=O)C2CC2)NC(=O)[C@@H]2C[C@@H](Oc3nc(-c4ccccc4)cc4ccccc34)CN2C1=O` [Compound 58, [(Z)-(1S,4R,14S,18R)-4-cyclopropanesulfonylaminocarbonyl-2,15-dioxo-18-(3-phenyl-isoquinolin-1-yloxy)-3,16-diaza-tricyclo[14.3.0.0^4,6]nonadec-7-en-14-yl]-carbamic acid tert-butyl ester], for which the IC50 is less than 50 nM.

On to `CC1(OC(=O)NC2CCCCCC=CC3CC3(C(=O)NS(=O)(=O)C3CC3)NC(=O)C3CC(Oc4nccc5ccccc45)CN3C2=O)CC1` (stereo not shown) [Compound 59], for which the IC50 is less than 50 nM.

As to `COc1ccc2c(OC3CC4C(=O)NC5(C(=O)NS(=O)(=O)C6CC6)CC5C=CCCCCCC(NC(=O)N5CCCC5)C(=O)N4C3)nccc2c1` (stereo not shown) [Compound 60], the IC50 was less than 50 nM.

As for `COc1ccc2c(OC3CC4C(=O)NC5(C(=O)NS(=O)(=O)C6CC6)CC5C=CCCCOC(C)C(NC(=O)OC(C)(C)C)C(=O)N4C3)nccc2c1` (stereo not shown) [Compound 62], the IC50 was less than 50 nM.

`COc1ccc2c(OC3CC4C(=O)NC5(C(=O)NS(=O)(=O)C6CC6)CC5C=CCCCOC(C)C(NC(=O)OCC(C)(C)C)C(=O)N4C3)nccc2c1` (stereo not shown) [Compound 63]: the IC50 was less than 50 nM.

On to `COc1ccc2c(OC3CC4C(=O)NC5(C(=O)NS(=O)(=O)C6CC6)CC5C=CCCCOC(C)C(NC(=O)OC(C)C)C(=O)N4C3)nccc2c1` (stereo not shown) [Compound 64], for which the 50% inhibitory concentration (IC50) was less than 50 nM.

With `COc1ccc2c(OC3CC4C(=O)NC5(C(=O)NS(=O)(=O)C6CC6)CC5C=CCCCOC(C)C(NC(=O)NC5CCCC5)C(=O)N4C3)nccc2c1` (stereo not shown) [Compound 65], the IC50 is less than 50 nM.

For `COc1ccc2c(OC3CC4C(=O)NC5(C(=O)NS(=O)(=O)C6(C)CC6)CC5C=CCCCOC(C)C(NC(=O)OC(C)(C)C)C(=O)N4C3)nccc2c1` (stereo not shown) [Compound 66], the IC50 was less than 50 nM.

Turning to `COc1ccc2c(OC3CC4C(=O)NC5(C(=O)NS(=O)(=O)C6(C)CC6)CC5C=CCCCOC(C)C(NC(=O)OCC(C)(C)C)C(=O)N4C3)nccc2c1` (stereo not shown) [Compound 67], the IC50 was less than 50 nM.

On to `COc1ccc2c(OC3CC4C(=O)NC5(C(=O)NS(=O)(=O)C6(C)CC6)CC5C=CCCCOC(C)C(NC(=O)OC(C)C)C(=O)N4C3)nccc2c1` (stereo not shown) [Compound 68], for which the half-maximal inhibitory concentration (IC50) is less than 50 nM.

As to `COc1ccc2c(OC3CC4C(=O)NC5(C(=O)NS(=O)(=O)C6(C)CC6)CC5C=CCCCOC(C)C(NC(=O)NC5CCCC5)C(=O)N4C3)nccc2c1` (stereo not shown) [Compound 69], the IC50 is less than 50 nM.

`CCC1(S(=O)(=O)NC(=O)C23CC2C=CCCCOC(C)C(NC(=O)OC(C)(C)C)C(=O)N2CC(Oc4nccc5cc(OC)ccc45)CC2C(=O)N3)CC1` (stereo not shown) [Compound 70]: the IC50 was less than 50 nM.

Regarding `CCC1(S(=O)(=O)NC(=O)C23CC2C=CCCCOC(C)C(NC(=O)OCC(C)(C)C)C(=O)N2CC(Oc4nccc5cc(OC)ccc45)CC2C(=O)N3)CC1` (stereo not shown) [Compound 71], the half-inhibitory concentration (IC50) was less than 50 nM.

With `CCC1(S(=O)(=O)NC(=O)C23CC2C=CCCCOC(C)C(NC(=O)OC(C)C)C(=O)N2CC(Oc4nccc5cc(OC)ccc45)CC2C(=O)N3)CC1` (stereo not shown) [Compound 72], the concentration for half-maximal inhibition (IC50) is less than 50 nM.

In the case of `CCC1(S(=O)(=O)NC(=O)C23CC2C=CCCCOC(C)C(NC(=O)NC2CCCC2)C(=O)N2CC(Oc4nccc5cc(OC)ccc45)CC2C(=O)N3)CC1` (stereo not shown) [Compound 73], the IC50 was less than 50 nM.

For the compound `COc1ccc2c(OC3CC4C(=O)NC5(C(=O)NS(=O)(=O)C6CC6)CC5C=CCCCSCC(NC(=O)OC(C)C)C(=O)N4C3)nccc2c1` (stereo not shown) [Compound 74], the 50% inhibitory concentration (IC50) is less than 50 nM.

On to `COc1ccc2c(OC3CC4C(=O)NC5(C(=O)NS(=O)(=O)C6CC6)CC5C=CCCCSCC(NC(=O)OCC(C)(C)C)C(=O)N4C3)nccc2c1` (stereo not shown) [Compound 75], for which the IC50 is less than 50 nM.

As for `CC(C)(C)OC(=O)NC1CSCCCC=CC2CC2(C(=O)NS(=O)(=O)C2CC2)NC(=O)C2CC(Oc3nccc4c(Cl)cccc34)CN2C1=O` (stereo not shown) [Compound 78], the 50% inhibitory concentration (IC50) is less than 50 nM.

Values taken from patent US7173004B2, “Macrocyclic isoquinoline peptide inhibitors of hepatitis C virus” (Bristol-Myers Squibb Company, priority 2003, dated 2007).
